For this assay, the system named is L1210 leukemia ip in BDF1 mice, survival T/C. As to the kind of experiment: NCI In Vivo Anticancer Drug Screen. Data for tumor model L1210 Leukemia (intraperitoneal) in B6D2F1 (BDF1) mice. The settings on record: endpoint: mean survival time, higher = longer survival. The essentials: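 Mice bearing the transplanted tumor received compound or vehicle. Survival of the treated group was divided by that of the vehicle-treated control group to give the ratio.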

Where [1] appears, read: dose: 50.0 mg/kg/injection, schedule: Q01DX001 (ip), vehicle: saline.
The mark [2] stands for this setting: dose: 100.0 mg/kg/injection, schedule: Q04DX003 (ip), vehicle: Klucel (hydroxypropylcellulose) (HPC).
The mark [3] stands for this setting: dose: 200.0 mg/kg/injection, schedule: Q04DX003 (ip), vehicle: Klucel (hydroxypropylcellulose) (HPC).
The mark [4] stands for this setting: dose: 100.0 mg/kg/injection, schedule: Q01DX001 (ip), vehicle: saline.
Where [5] appears, read: dose: 100.0 mg/kg/injection, schedule: Q01DX009 (ip), vehicle: saline.
Where [6] appears, read: dose: 100.0 mg/kg/injection, schedule: Q04DX003 (ip), vehicle: saline.
[7] abbreviates: dose: 200.0 mg/kg/injection, schedule: Q01DX001 (ip), vehicle: saline.
The mark [8] stands for this setting: dose: 200.0 mg/kg/injection, schedule: Q01DX009 (ip), vehicle: saline.
[9] abbreviates: dose: 200.0 mg/kg/injection, schedule: Q04DX003 (ip), vehicle: saline.
Where [10] appears, read: dose: 400.0 mg/kg/injection, schedule: Q01DX001 (ip), vehicle: saline.
Setting [11] is: dose: 400.0 mg/kg/injection, schedule: Q01DX009 (ip), vehicle: saline.
The mark [12] stands for this setting: dose: 400.0 mg/kg/injection, schedule: Q04DX003 (ip), vehicle: saline.

Where “and” joins values, the source holds several entries; their conditions need not be identical. Equal entries are not always repeated. Toxic doses and inconclusive results are not listed.

For the molecule `O=C1C(=O)c2ccccc2C(O)=C1CC=C(Cl)Cl`, the T/C (dose: 6.2 mg/kg/injection, schedule: Q01DX009 (ip), vehicle: water) was 94 % of control; the T/C (dose: 6.25 mg/kg/injection, schedule: Q01DX001 (ip), vehicle: saline) was 97 % of control; the T/C (dose: 12.5 mg/kg/injection, schedule: Q01DX001 (ip), vehicle: saline) was 106 % of control; the T/C (dose: 12.5 mg/kg/injection, schedule: Q01DX001 (oral), vehicle: saline) was 97 % of control; the T/C (dose: 12.5 mg/kg/injection, schedule: Q01DX009 (ip), vehicle: water) was 100 % of control and 96 % of control; the T/C (dose: 12.5 mg/kg/injection, schedule: Q03HX024 (ip), vehicle: water) is 89 % of control. The T/C reads like this: (dose: 12.5 mg/kg/injection, schedule: Q04DX003 (ip), vehicle: water) 94 % of control; (dose: 12.5 mg/kg/injection, schedule: Q08DX002 (ip), vehicle: water) 98 % of control; (dose: 25.0 mg/kg/injection, schedule: Q01DX001 (ip), vehicle: saline) 104 % of control; (dose: 25.0 mg/kg/injection, schedule: Q01DX001 (oral), vehicle: saline) 104 % of control; (dose: 25.0 mg/kg/injection, schedule: Q01DX009 (ip), vehicle: water) 102 % of control and 96 % of control; (dose: 25.0 mg/kg/injection, schedule: Q03HX016 (ip), vehicle: water) 89 % of control. The T/C by setting is: (dose: 25.0 mg/kg/injection, schedule: Q03HX024 (ip), vehicle: water) 90 % of control; (dose: 25.0 mg/kg/injection, schedule: Q04DX003 (ip), vehicle: water) 95 % of control; (dose: 25.0 mg/kg/injection, schedule: Q08DX002 (ip), vehicle: water) 95 % of control; (dose: 25.0 mg/kg/injection, schedule: Q## X008 (ip), vehicle: water) 91 % of control; under setting [1], 106 % of control; (dose: 50.0 mg/kg/injection, schedule: Q01DX001 (ip), vehicle: water) 102 % of control. For the same molecule, the T/C is, setting by setting: (dose: 50.0 mg/kg/injection, schedule: Q01DX001 (oral), vehicle: saline) 98 % of control; (dose: 50.0 mg/kg/injection, schedule: Q01DX009 (ip), vehicle: water) 113 % of control and 100 % of control; (dose: 50.0 mg/kg/injection, schedule: Q03HX016 (ip), vehicle: water) 91 % of control; (dose: 50.0 mg/kg/injection, schedule: Q03HX024 (ip), vehicle: water) 96 % of control; (dose: 50.0 mg/kg/injection, schedule: Q04DX003 (ip), vehicle: water) 97 % of control; (dose: 50.0 mg/kg/injection, schedule: Q08DX002 (ip), vehicle: water) 92 % of control. The T/C by setting is: (dose: 50.0 mg/kg/injection, schedule: Q## X008 (ip), vehicle: water) 88 % of control; (dose: 75.0 mg/kg/injection, schedule: Q03HX024 (ip), vehicle: water) 90 % of control; (dose: 75.0 mg/kg/injection, schedule: Q04DX003 (ip), vehicle: water) 95 % of control; (dose: 100.0 mg/kg/injection, schedule: Q01DX001 (oral), vehicle: saline) 97 % of control and 106 % of control; (dose: 100.0 mg/kg/injection, schedule: Q03HX016 (ip), vehicle: water) 88 % of control; (dose: 100.0 mg/kg/injection, schedule: Q03HX024 (ip), vehicle: water) 92 % of control. For the same molecule, the T/C was 92 % of control (dose: 100.0 mg/kg/injection, schedule: Q08DX002 (ip), vehicle: water); 92 % of control (dose: 100.0 mg/kg/injection, schedule: Q## X008 (ip), vehicle: water); 90 % of control (dose: 200.0 mg/kg/injection, schedule: Q03HX016 (ip), vehicle: water); 94 % of control (dose: 200.0 mg/kg/injection, schedule: Q## X008 (ip), vehicle: water).

`COC(CNCc1ccccc1)OC`: the T/C is 101 % of control (dose: 75.0 mg/kg/injection, schedule: Q01DX001 (ip), vehicle: steriod suspending solution) and 102 % of control (dose: 150.0 mg/kg/injection, schedule: Q01DX001 (ip), vehicle: steriod suspending solution).

On to `CC(C)(C)c1ccc(SC(=O)NCCCl)cc1`, for which the T/C runs as follows: (dose: 20.0 mg/kg/injection, schedule: Q04DX003 (ip), vehicle: Klucel (hydroxypropylcellulose) (HPC)) 97 % of control; (dose: 40.0 mg/kg/injection, schedule: Q04DX003 (ip), vehicle: Klucel (hydroxypropylcellulose) (HPC)) 98 % of control; (dose: 80.0 mg/kg/injection, schedule: Q04DX003 (ip), vehicle: Klucel (hydroxypropylcellulose) (HPC)) 90 % of control; under setting [2], 106 % of control; under setting [3], 91 % of control.

With `COc1cc(I)c(CC(=O)O)cc1OC`, the T/C under setting [4] was 97 % of control; the T/C under setting [5] was 93 % of control; the T/C under setting [6] was 96 % of control; the T/C under setting [7] was 97 % of control; the T/C under setting [8] is 91 % of control; the T/C under setting [9] was 96 % of control. For the same molecule, the T/C under setting [10] is 96 % of control, the T/C under setting [11] is 96 % of control and the T/C under setting [12] was 90 % of control.

As for `CN(C)/N=N/c1[nH]ncc1C(N)=O`, the T/C by setting is: under setting [4], 113 % of control; (dose: 108.0 mg/kg/injection, schedule: Q01DX009 (ip), vehicle: saline) 176 % of control; (dose: 300.0 mg/kg/injection, schedule: Q01DX009 (ip), vehicle: saline) 110 % of control; (dose: 600.0 mg/kg/injection, schedule: Q01DX001 (ip), vehicle: saline) 156 % of control.

Turning to `CC12C(C#N)=C(c3ccccc3)C=C(c3ccccc3)C1=C(c1ccccc1)c1ccccc12` (configuration not stated), the T/C by setting is: (dose: 100.0 mg/kg/injection, schedule: Q01DX009 (ip), vehicle: Klucel (hydroxypropylcellulose) (HPC)) 100 % of control; under setting [2], 89 % of control; (dose: 200.0 mg/kg/injection, schedule: Q01DX009 (ip), vehicle: Klucel (hydroxypropylcellulose) (HPC)) 100 % of control; under setting [3], 100 % of control; (dose: 400.0 mg/kg/injection, schedule: Q01DX009 (ip), vehicle: Klucel (hydroxypropylcellulose) (HPC)) 94 % of control; (dose: 400.0 mg/kg/injection, schedule: Q04DX003 (ip), vehicle: Klucel (hydroxypropylcellulose) (HPC)) 94 % of control.

For the molecule `NN=C(c1ccccc1)c1ccccc1`, the T/C is, setting by setting: (dose: 1.3 mg/kg/injection, schedule: Q01DX009 (ip), vehicle: Klucel (hydroxypropylcellulose) (HPC)) 103 % of control; (dose: 2.61 mg/kg/injection, schedule: Q01DX009 (ip), vehicle: Klucel (hydroxypropylcellulose) (HPC)) 94 % of control; (dose: 5.23 mg/kg/injection, schedule: Q01DX009 (ip), vehicle: Klucel (hydroxypropylcellulose) (HPC)) 94 % of control; (dose: 10.46 mg/kg/injection, schedule: Q01DX009 (ip), vehicle: Klucel (hydroxypropylcellulose) (HPC)) 86 % of control; (dose: 25.0 mg/kg/injection, schedule: Q04DX003 (ip), vehicle: Klucel (hydroxypropylcellulose) (HPC)) 97 % of control; (dose: 41.87 mg/kg/injection, schedule: Q01DX009 (ip), vehicle: Klucel (hydroxypropylcellulose) (HPC)) 91 % of control. Besides, the T/C was 96 % of control under setting [1]; 92 % of control (dose: 50.0 mg/kg/injection, schedule: Q04DX003 (ip), vehicle: Klucel (hydroxypropylcellulose) (HPC)); 98 % of control (dose: 83.7 mg/kg/injection, schedule: Q01DX009 (ip), vehicle: Klucel (hydroxypropylcellulose) (HPC)); 96 % of control under setting [4]; 111 % of control under setting [2]; 100 % of control under setting [7]. Besides, the T/C under setting [10] is 96 % of control.

For `CNC(=O)OCC1=CC(=O)C=C(OC)C1=O`, the T/C by setting is: (dose: 6.25 mg/kg/injection, schedule: Q01DX009 (ip), vehicle: gum acacia) 90 % of control; (dose: 12.5 mg/kg/injection, schedule: Q04DX003 (ip), vehicle: gum acacia) 94 % of control; (dose: 25.0 mg/kg/injection, schedule: Q04DX003 (ip), vehicle: gum acacia) 101 % of control.

With `C/C(=C\Cl)CN1C(=O)c2ccccc2C1=O`, the T/C was 93 % of control under setting [5]; 97 % of control under setting [6]; 113 % of control under setting [8]; 101 % of control under setting [9]; 102 % of control under setting [11]; 105 % of control under setting [12].

These data come from PubChem BioAssay AID248 (DTP/NCI, 2004).
